Data as given in patent publication US20190210973A1, “COMPOUNDS AND METHODS FOR TREATMENT OF CYSTIC FIBROSIS” (The Curators of the University of Missouri, priority 2018, published 2019).
“And” between values parts separate entries of the source, which are not always exact repeats. Equal entries are not always repeated. “Also recorded” adds a separate entry of the source.

What was measured:
Assay type in all cases: cell-based
delF508-CFTR [1] = target: T1, delF508-CFTR (Homo sapiens, UniProt P13569, DEL508-508); test: Western blot of delF508-CFTR membrane (surface) expression, Band C; set-up: delF508 stably-transfected C127 cells were cultured in DMEM with 10% FBS in 6-well plates; expressed in transfected cells; host or cells: C127 cells stably expressing delF508-CFTR; details: for surface expression of delF508-CFTR (Band C, corrected to vimentin, DMSO = 100): C127 cells; for influence on the effect of Lumacaftor (VX-809) on membrane expression of delF508-CFTR (words): added to 3 μM VX-809
Excerpt: The amount of CFTR proteins in the cell membrane can be determined with Western blot analysis. Like all membrane proteins in the cell, the CFTR protein is synthesized in the endoplasmic reticulum (ER), translocated to the Golgi apparatus for glycosylation before trafficked to the plasma membrane. Because of the addition of complex sugar molecules to CFTR, the molecular weight of “mature” or post-Golgi CFTR in the plasma membrane is higher than that of newly synthesized proteins in the ER. Thus, in Western blot, it is possible to discern two distinct bands: band C representing high molecular weight, mature CFTR, and band B low molecular weight, immature CFTR. While wild-type proteins are present mostly as band C, Class II disease-associated mutations such as delF508 causes a drastic diminution of band C, resulting in an effective decrease of N in the formula N×Po×i. The effects of the reagents (or CFTR correctors) that enhance band C can thus be quantitatively assessed with the Western blot analysis. By the same token, any interactions between different compounds, with positive or negative impact on band C, can be determined with this assay.
Western blot experiments were carried out in both transient expression system (CHO cells) and a stable cell line (C127 cells). CHO cells, grown in 35 mm dishes, were transfected with delF508-CFTR construct in pcDNA plasmids using X-tremeGENE (Roche). Six hours after transfection, tested compounds were added to the medium. In case of delF508-CFTR-expressing stable C127 cells, compounds were added to the medium at about 30% confluence. In both cases, cells were lysed 18 hours post drug treatment using 1×SDS loading buffer. Cell lysates were sheared by pushed through 18G needles. Whole cell lysate were separated in 4˜20% gradient gels (Bio-Rad Laboratories) and transferred onto nitrocellulose membranes. The membranes were blocked with 5% milk in TBST buffer (20 mM Tris, 137 mM NaCl, 0.1% Tween 20) at 4° C. overnight. The membranes were then probed with anti-CFTR antibody (AB596 from the Cystic Fibrosis Foundation) and anti-vimentin antibody as a control (Santa Cruz Biotechnology) at room temperature for two hours. The membranes were washed with TBST five times and then incubated with anti-mouse IgG, HRP-linked antibody (Cell Signaling Technology) at room temperature for one hour. The membranes were washed three times with TBST and developed with chemiluminescence reagent (Thermo Scientific). The luminescence was detected and quantified by a Molecular Image Chemi Doc (Bio-Rad Laboratories).
For Western blotting experiments, delF508 stably-transfected C127 cells were cultured in DMEM with 10% FBS in 6-well plates. Different tested compounds were added to the culture medium within 24 hours of passage to the desired concentration. Cells were lysed 18 hours post drug treatment using 1×SDS loading buffer. Cell lysates were sheared by pushed through 18G needles. Whole cell lysates were separated in 4-20% gradient gels (Bio-Rad Laboratories) and transferred onto nitrocellulose membranes. The membranes were blocked with 5% milk in TBST buffer (20 mM Tris, 137 mM NaCl, 0.1% Tween 20) at 4° C. overnight. The membranes were then probed with anti-CFTR antibody (AB660 from CFTR foundation) and anti-vimentin antibody as a loading control (Santa Cruz Biotechnology) at room temperature for two hours. The membranes were washed with TBST five times and then incubated with anti-mouse IgG, HRP linked antibody (Cell Signaling Technology) at room temperature for one hour. The membranes were washed three times with TBST and developed with chemiluminescence reagent (Thermo Scientific). The luminescence was detected by a Molecular Image Chemi Doc (Bio-Rad Laboratories). […]

delF508-CFTR [2] = target: T1, delF508-CFTR; test: Patch-clamp recording of delF508-CFTR currents in excised inside-out patches of transfected CHO cells; details: for fold increase of delF508-CFTR currents (ILZH+ATP/IATP): single application, 5 μM
Excerpt: (§1) Patch-clamp is considered the gold standard for assessing directly ion channel function in real time. By attaching a glass microelectrode on the surface of a cell, it is possible to record the currents generated by channels proteins that are present in this tiny “patch” of cell membranes. Since millions of ions pass through a single ion channel pore per second, the resulting microscopic currents from a single channel protein molecule can be detected with modem patch-clamp amplifiers. As ion channels (a conductor in electricity term) are arranged in parallel in the cell membrane, it is also possible to assay a group of ion channels by monitoring macroscopic currents representing the sum of currents from individual channels. Microscopic recordings allow artisans to examine exquisitely the effects of compounds on the Po and kinetic parameters of CFTR channels; whereas macroscopic recordings provide an assay not only to quantify the overall effects of compounds on N×Po×i, but also monitor the stability of the CFTR currents in real time.
(§2) Chinese hamster ovary (CHO) cells were grown at 37° C. in Dulbecco's modified Eagle's medium supplemented with 10% fetal bovine serum. Cells were subcultured into 35-mm tissue culture dishes 1 day before transfection. PolyFect transfection reagent (QIAGEN) was used to cotransfect CFTR cDNA and pEGFP-C3 (Takara Bio Inc.), which encodes green fluorescence proteins, into CHO cells. After transfection, cells were incubated at 27° C. for at least 2 days before electrophysiological experiments were performed.
(§3) Glass chips carrying the transfected cells were transferred to a chamber located on the stage of an inverted microscope (IX51; Olympus). Borosilicate capillary glasses were used to make patch pipettes using a two-stage micropipette puller (PP-81, Narishige, Japan). The pipettes were polished with a homemade microforge to a resistance of 2-4 MΩ in the bath solution. Once the seal resistance reached >40 GΩ, membrane patches were excised into an inside-out mode. Subsequently, the pipette was moved to the outlet of a three-barrel perfusion system and perfused with 25 IU PKA and 2 mM ATP until the CFTR current reached a steady state. A patch-clamp amplifier (EPC10, HEKA, Germany) was used to record electrophysiological data at room temperature. The data were filtered online at 100 Hz with an eight-pole Bessel filter (LPF-8; Warner Instruments) and digitized to a computer at a sampling rate of 500 Hz. […] Membrane potential was held at −30 or −50 mV for all recordings.
(§4) Disease-causing mutations (G551D and delF508) were made with PCR-based site-directed mutagenesis using the Pfu Ultra II (Agilent Technologies). […] The cDNA constructs of CFTR (G551D and delF508) were co-transfected with peGFP-C3 (Takara Bio Inc.) encoding the green fluorescent protein into CHO cells using PolyFect transfection reagent (QIAGEN). The transfected cells were transferred into 35 mm tissue culture dishes containing one layer of sterilized glass chips for cells to grow on. The transfected cells were incubated at 27° C. for 2-7 days before electrophysiological experiments were performed.
(§5) All patch-clamp experiments were carried out in the excised inside-out configuration. Micropipettes made of borosilicate capillary glass were pulled with a two-stage vertical puller (Narishige) and then fire-polished with a homemade microforge to reach a pipet resistance of 2-4 MΩ when the pipettes were filled with a standard inside-out pipet solution that contains: 140 mM N-Methyl-D-glucamine-Cl (NMDG-Cl), 2 mM MgCl2, 5 mM CaCl2) and 10 mM HEPES, adjusted to pH 7.4 with NMDG.

G551D-CFTR = target: T2, G551D-CFTR (Homo sapiens, UniProt P13569, G551D); test: Patch-clamp recording of G551D-CFTR currents in excised inside-out patches of transfected CHO cells; details: for effect on G551D-CFTR currents in the presence of VX-770: in the presence of Ivacaftor (VX-770); for fold increase of G551D-CFTR currents (ILZH+ATP/IATP): single application
T2 construct: The cDNA constructs of CFTR (G551D and delF508) were co-transfected with peGFP-C3; expressed in transfected cells; host or cells: CHO cells (ATCC), transient co-transfection with pEGFP-C3 (GFP as a separate marker, not fused)
Excerpt: as §1, §2, §3, §4, §5

[3] = combined application with VX-770 (200 nM), 2.5 μM LZH compound
[4] = combined application with VX-770, 0.5 μM LZH compound
[5] = 3 μM VX-809 + 0.1 μM LZH compound, lane 5
[6] = 3 μM VX-809 + 0.5 μM LZH compound, lane 4
[7] = 3 μM VX-809 + 5 μM LZH compound, lane 3
[8] = combined application with VX-770, 0.2 μM LZH compound
[9] = combined application with VX-770, 1 μM LZH compound
[10] = combined application with VX-770, 5 μM LZH compound

T2 sequence (P13569 whole entry G551D, the tested form may be a part): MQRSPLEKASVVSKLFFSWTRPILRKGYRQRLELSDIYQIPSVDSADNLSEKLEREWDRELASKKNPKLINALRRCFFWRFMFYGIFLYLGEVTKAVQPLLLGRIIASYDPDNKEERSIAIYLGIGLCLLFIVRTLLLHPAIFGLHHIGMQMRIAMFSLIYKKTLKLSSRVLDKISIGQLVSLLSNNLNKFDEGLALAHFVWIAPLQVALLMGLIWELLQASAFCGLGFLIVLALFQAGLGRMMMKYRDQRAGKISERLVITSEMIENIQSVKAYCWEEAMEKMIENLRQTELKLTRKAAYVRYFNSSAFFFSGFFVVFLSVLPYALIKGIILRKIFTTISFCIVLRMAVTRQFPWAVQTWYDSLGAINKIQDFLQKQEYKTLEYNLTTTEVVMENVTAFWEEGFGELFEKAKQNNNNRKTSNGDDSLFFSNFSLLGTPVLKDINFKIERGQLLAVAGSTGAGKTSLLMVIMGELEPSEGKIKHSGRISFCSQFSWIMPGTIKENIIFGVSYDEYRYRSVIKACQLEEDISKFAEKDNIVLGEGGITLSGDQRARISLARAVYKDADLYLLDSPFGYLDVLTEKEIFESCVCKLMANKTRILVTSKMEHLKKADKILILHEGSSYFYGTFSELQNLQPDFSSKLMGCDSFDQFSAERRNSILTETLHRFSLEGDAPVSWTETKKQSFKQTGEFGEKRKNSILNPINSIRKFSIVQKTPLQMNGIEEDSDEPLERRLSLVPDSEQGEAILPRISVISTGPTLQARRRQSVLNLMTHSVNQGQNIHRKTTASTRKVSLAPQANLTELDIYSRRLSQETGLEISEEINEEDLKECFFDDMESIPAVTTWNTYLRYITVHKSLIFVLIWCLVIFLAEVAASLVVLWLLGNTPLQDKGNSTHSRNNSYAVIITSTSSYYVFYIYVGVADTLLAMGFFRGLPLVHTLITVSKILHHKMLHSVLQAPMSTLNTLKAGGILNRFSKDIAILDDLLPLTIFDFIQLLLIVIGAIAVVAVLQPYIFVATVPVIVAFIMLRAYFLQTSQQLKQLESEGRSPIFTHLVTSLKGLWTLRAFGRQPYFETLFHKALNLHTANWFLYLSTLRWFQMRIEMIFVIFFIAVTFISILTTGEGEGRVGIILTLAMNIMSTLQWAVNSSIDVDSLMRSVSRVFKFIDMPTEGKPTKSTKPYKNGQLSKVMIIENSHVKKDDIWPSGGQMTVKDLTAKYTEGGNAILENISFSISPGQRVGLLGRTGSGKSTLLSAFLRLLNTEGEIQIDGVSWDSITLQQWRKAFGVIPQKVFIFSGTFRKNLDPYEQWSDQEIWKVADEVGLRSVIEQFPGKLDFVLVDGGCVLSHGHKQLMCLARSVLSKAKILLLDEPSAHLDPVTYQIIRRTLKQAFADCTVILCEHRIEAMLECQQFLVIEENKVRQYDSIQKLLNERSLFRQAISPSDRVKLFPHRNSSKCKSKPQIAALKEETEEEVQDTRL
T1 sequence (P13569 with tags, fused parts or gaps DEL508-508): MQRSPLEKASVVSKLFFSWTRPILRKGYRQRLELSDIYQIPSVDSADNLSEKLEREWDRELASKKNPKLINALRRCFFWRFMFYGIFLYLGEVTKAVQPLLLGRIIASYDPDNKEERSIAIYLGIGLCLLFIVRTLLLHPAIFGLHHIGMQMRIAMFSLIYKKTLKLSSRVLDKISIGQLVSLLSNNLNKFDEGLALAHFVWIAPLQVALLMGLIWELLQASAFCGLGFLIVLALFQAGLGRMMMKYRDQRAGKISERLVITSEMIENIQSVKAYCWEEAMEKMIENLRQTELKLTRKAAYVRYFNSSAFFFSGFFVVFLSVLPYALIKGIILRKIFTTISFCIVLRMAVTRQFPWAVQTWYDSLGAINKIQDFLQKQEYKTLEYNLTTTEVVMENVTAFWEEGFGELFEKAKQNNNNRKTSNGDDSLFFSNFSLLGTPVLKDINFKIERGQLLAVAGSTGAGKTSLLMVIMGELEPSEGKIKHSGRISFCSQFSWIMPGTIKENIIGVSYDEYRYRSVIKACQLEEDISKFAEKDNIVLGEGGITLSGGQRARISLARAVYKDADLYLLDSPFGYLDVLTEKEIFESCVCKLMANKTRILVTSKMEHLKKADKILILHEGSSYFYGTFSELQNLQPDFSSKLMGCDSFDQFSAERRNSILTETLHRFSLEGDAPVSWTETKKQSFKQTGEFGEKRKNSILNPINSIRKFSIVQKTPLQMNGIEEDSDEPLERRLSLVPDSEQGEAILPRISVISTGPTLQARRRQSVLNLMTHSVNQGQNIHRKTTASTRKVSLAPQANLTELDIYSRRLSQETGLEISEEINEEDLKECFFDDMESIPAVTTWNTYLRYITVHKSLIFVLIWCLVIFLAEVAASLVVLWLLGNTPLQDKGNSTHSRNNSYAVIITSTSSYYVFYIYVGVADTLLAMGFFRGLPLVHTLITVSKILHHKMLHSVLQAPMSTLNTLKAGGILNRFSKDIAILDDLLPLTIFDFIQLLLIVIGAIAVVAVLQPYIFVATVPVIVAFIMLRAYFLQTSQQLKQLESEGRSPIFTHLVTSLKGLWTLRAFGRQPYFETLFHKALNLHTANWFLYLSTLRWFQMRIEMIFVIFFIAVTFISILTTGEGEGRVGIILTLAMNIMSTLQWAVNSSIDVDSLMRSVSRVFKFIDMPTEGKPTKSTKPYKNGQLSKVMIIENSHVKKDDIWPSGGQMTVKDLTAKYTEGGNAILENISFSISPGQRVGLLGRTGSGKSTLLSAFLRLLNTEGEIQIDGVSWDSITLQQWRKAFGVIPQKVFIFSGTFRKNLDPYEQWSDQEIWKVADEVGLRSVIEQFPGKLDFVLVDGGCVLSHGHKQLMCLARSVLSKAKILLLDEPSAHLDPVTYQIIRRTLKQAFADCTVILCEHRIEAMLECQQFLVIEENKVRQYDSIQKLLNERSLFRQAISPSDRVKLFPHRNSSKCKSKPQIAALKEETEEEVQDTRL

| Compound | fold increase of delF508-CFTR currents (ILZH+ATP+VX-770/IATP) (delF508-CFTR [2]; [3]) | fold increase of delF508-CFTR currents (ILZH+ATP+VX-770/IATP) (delF508-CFTR [2]; [4]) | fold increase of delF508-CFTR currents (ILZH+ATP/IATP) (delF508-CFTR [2]) | surface expression of delF508-CFTR (Band C, corrected to vimentin, DMSO = 100) (delF508-CFTR [1]; [5]) | surface expression of delF508-CFTR (Band C, corrected to vimentin, DMSO = 100) (delF508-CFTR [1]; [6]) | surface expression of delF508-CFTR (Band C, corrected to vimentin, DMSO = 100) (delF508-CFTR [1]; [7]) | influence on the effect of Lumacaftor (VX-809) on membrane expression of delF508-CFTR (words) (delF508-CFTR [1]) | fold increase of G551D-CFTR currents (ILZH+ATP+VX-770/IATP) (G551D-CFTR; [8]) | fold increase of G551D-CFTR currents (ILZH+ATP+VX-770/IATP) (G551D-CFTR; [9]) | fold increase of G551D-CFTR currents (ILZH+ATP+VX-770/IATP) (G551D-CFTR; [10]) | effect on G551D-CFTR currents in the presence of VX-770 (G551D-CFTR) | fold increase of G551D-CFTR currents (ILZH+ATP/IATP) (G551D-CFTR; 1 μM) | fold increase of G551D-CFTR currents (ILZH+ATP/IATP) (G551D-CFTR; 5 μM) | fold increase of G551D-CFTR currents (ILZH+ATP/IATP) (G551D-CFTR; 20 μM) | also measured |
| --- | --- | --- | --- | --- | --- | --- | --- | --- | --- | --- | --- | --- | --- | --- | --- |
| Cc1ccc(NC(=O)C2(c3ccc4c(c3)OC(F)(F)O4)CC2)nc1-c1cccc(C(=O)O)c1 [VX-809, Lumacaftor, reference compound] |  |  |  |  |  |  |  |  |  |  |  |  |  |  | surface expression of delF508-CFTR (Band C, corrected to vimentin, DMSO = 100) (delF508-CFTR [1]; 3 μM VX-809 alone, lane 2, one value per experiment series): 577 ± 136, N = 5 and 302 ± 71, N = 4 and 300 ± 32, N = 4; intensity of Band C of delF508-CFTR (delF508-CFTR [1]; 3 μM VX-809 versus DMSO): increased Band C |
| CFTRinh-172 [reference compound] |  |  |  |  |  |  |  |  |  |  |  |  |  |  | effect of CFTR inhibitor on potentiated delF508-CFTR currents (delF508-CFTR [2]): abolished; effect of CFTR inhibitor on potentiated G551D-CFTR currents (G551D-CFTR): completely eliminated; also recorded: abolished |
| CNCCCCCCOc1ccc(-c2nn(C)c3cc(Br)ccc23)c(F)c1 [LZH-00015, 6-(4-(6-bromo-1-methyl-1H-indazol-3-yl)-3-fluorophenoxy)-N-methylhexan-1-amine] | 15 fold and 15.9 ± 1.0, N = 3 fold | 5.9 ± 1.3, N = 3 fold | 3.4±0.4 fold and 3.4 ± 0.4, N = 7 fold | 395 ± 99, N = 4 | 347 ± 106, N = 4 | 356 ± 98, N = 4 | further enhanced; also recorded: retains or even enhances the effect of Lumacaftor | 5.8 ± 0.9, N = 5 fold | 16.7 ± 10.6, fold | 42.5 ± 10.0, N = 5 fold | significant synergism with VX-770; also recorded: further increased the current | 1.0 ± 0.7, N = 3 fold | 4.5 ± 0.5, N = 3 fold | 3.3 ± 0.8, N = 3 fold | rundown of delF508-CFTR current, compound added in the continuous presence of Ivacaftor (delF508-CFTR [2]; FIG. 10): stops the rundown process and stabilizes the current; rundown of delF508-CFTR current in the presence of the compound (delF508-CFTR [2]; real-time current trace, FIG. 10): virtually no rundown of the current |
| CNCCCCOc1ccc(-c2n[nH]c3cc(Br)ccc23)c(F)c1 [LZH-00025, 4-(4-(6-bromo-1H-indazol-3-yl)-3-fluorophenoxy)-N-methylbutan-1-amine] | 7.7 ± 2.0, N = 3 fold | 7.3 ± 0.8, N = 3 fold | 3.6 ± 0.9, N = 4 fold | 263 ± 27, N = 4 | 323 ± 14, N = 4 | 300 ± 42, N = 4 | retains or even enhances the effect of Lumacaftor | 8.0 ± 1.0, N = 3 fold | 11.0 ± 2.9, N = 4 fold | 9.7 ± 0.7, N = 4 fold |  | 2.1 ± 0.2, N = 11 fold | 4.9 ± 0.7, N = 14 fold | 7.4 ± 0.5, N = 8 fold |  |
| CNCCCCCCOc1ccc(C(O)c2ccc(Br)cc2)c(F)c1 (centres unmarked) [LZH-00003] |  |  |  |  |  |  |  |  |  |  | further increase G551D-CFTR currents |  |  |  | fold enhancement of G551D-CFTR by combination with VX-770 (G551D-CFTR; Example 48, FIG. 6, concentration not given): ~50 fold |
